From patent publication EP3046573B1, “AMYLIN ANALOGUES” (Zealand Pharma A/S, priority 2013, dated 2015)
Where two headings read alike, the source gives them in different places. Numbered stars: 1 amine (or outer) side, 2 acyl side, 3 side chain; on linkers, the order of the positions; unused ones are H or OH. Bridge positions count the residues as written; N and C are the ends. Square brackets hold non-standard residues; d marks the D form. Peptide text beside a SMILES is read from it. * marks the point of attachment. C20 diacid = O=C(O)CCCCCCCCCCCCCCCCCCC(=O)*; γGlu = O=C(O)[C@H](CCC(=O)[*:2])N[*:1]; NMeI = CC[C@H](C)[C@H](NC)C(=O)O; Sar = CNCC(=O)O

Legend:
[1] = molecular target: T1, human calcitonin receptor (hCTR2) (Homo sapiens, UniProt P30988); experiment: hCTR2 assay: induction of cAMP (AlphaScreen cAMP Assay kit) in COS7 cells expressing hCTR2; type: cell-based
T1 construct: expressed in transfected cells
T1 sequence (P30988 25-474): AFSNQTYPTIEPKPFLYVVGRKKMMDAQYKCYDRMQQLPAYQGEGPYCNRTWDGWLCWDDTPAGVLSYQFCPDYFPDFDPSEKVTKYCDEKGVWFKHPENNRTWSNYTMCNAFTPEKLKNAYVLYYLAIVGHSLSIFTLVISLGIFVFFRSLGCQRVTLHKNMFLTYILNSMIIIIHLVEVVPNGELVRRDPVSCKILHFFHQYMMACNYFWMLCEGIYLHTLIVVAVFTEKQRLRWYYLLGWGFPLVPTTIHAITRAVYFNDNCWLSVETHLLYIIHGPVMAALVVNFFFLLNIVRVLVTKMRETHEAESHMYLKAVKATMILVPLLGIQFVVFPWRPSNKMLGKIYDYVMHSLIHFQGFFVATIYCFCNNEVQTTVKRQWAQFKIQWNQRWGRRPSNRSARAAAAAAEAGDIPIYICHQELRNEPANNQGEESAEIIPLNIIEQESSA
Procedure, shortened: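 COS7 stable hCTR2 clone (RAMP-free); peptide dose-response 15 min 37° C in Tyrode pH 7.4 + 100 µM IBMX + 0.1% casein; lysis 10 min RT; AlphaScreen cAMP; 4PL fit.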

[2] = Solubility assessment (turbidity absorbance at 325 nm); type: physicochemical; details: stock 2 mg/ml diluted 1:1, ambient temperature (typically 25°C), n=1; for Solubility, Acetate buffer pH 4: 100 mM acetate buffer pH 4.0; for Solubility, Acetate buffer pH 5: 100 mM acetate buffer pH 5.0; for Solubility, Histidine buffer pH 6: 100 mM histidine buffer pH 6.0; for Solubility, Histidine buffer pH 7: 100 mM histidine buffer pH 7.0; for Solubility, Phosphate buffer pH 6: 100 mM phosphate buffer pH 6.0; for Solubility, Phosphate buffer pH 7: 100 mM phosphate buffer pH 7.0; for Solubility, Phosphate buffer pH 7.5: 100 mM phosphate buffer pH7.5
Procedure, shortened: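 Stock 2 mg/ml peptide, H2O/HCl pH 2.5; 1:1 into 100 mM buffers: acetate pH 4.0/5.0, His pH 6.0/7.0, phosphate pH 6.0/7.0/7.5. A280 + A325, ~25°C, n=1. Soluble ≥ 1 mg/ml if A325 ≤ 0.02.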

[3] = cAMP induction in COS7 cells expressing hCTR2, average of a minimum of 3 determinations, read-out: hCTR2 EC50

Row | EC50 [1, 3] [nM] | Solubility, Acetate buffer pH 4 [2] | Solubility, Acetate buffer pH 5 [2] | Solubility, Histidine buffer pH 6 [2] | Solubility, Histidine buffer pH 7 [2] | Solubility, Phosphate buffer pH 6 [2] | Solubility, Phosphate buffer pH 7 [2] | Solubility, Phosphate buffer pH 7.5 [2] | SMILES | EC50 [1] [nM]
1 | 0.15 | SS (SS indicates solubility ≥ 1mg/ml) | II (II indicates solubility ≤ 1 mg/ml) | II (II indicates solubility ≤ 1 mg/ml) | SS (SS indicates solubility ≥ 1mg/ml) | SS (SS indicates solubility ≥ 1mg/ml) | SS (SS indicates solubility ≥ 1mg/ml) | SS (SS indicates solubility ≥ 1mg/ml) | CC[C@H](C)[C@@H](C(=O)N[C@@H](CC(C)C)C(=O)N[C@@H](CO)C(=O)N[C@@H](CO)C(=O)N[C@H](C(=O)N[C@@H](CC(N)=O)C(=O)N[C@H](C(=O)NCC(=O)N[C@@H](CO)C(=O)N[C@@H](CC(N)=O)C(=O)N[C@H](C(=O)N1CCC[C@H]1C(N)=O)[C@@H](C)O)C(C)C)[C@@H](C)O)N(C)C(=O)[C@H](C)NC(=O)CN(C)C(=O)[C@H](Cc1ccccc1)NC(=O)[C@H](CC(N)=O)NC(=O)[C@H](CO)NC(=O)[C@H](CO)NC(=O)[C@H](Cc1c[nH]cn1)NC(=O)[C@H](Cc1c[nH]cn1)NC(=O)[C@H](CC(C)C)NC(=O)[C@H](Cc1ccccc1)NC(=O)[C@H](CCC(=O)O)NC(=O)[C@H](C)NC(=O)[C@H](CC(C)C)NC(=O)[C@H](CCCNC(=N)N)NC(=O)[C@H](CCC(N)=O)NC(=O)[C@@H](NC(=O)[C@H](C)NC(=O)[C@@H]1CSSC[C@H](NC(=O)[C@H](CCCNC(=N)N)NC(=O)CC[C@H](NC(=O)CCCCCCCCCCCCCCCCCCC(=O)O)C(=O)O)C(=O)N[C@@H](CC(N)=O)C(=O)N[C@@H]([C@@H](C)O)C(=O)N[C@@H](C)C(=O)N[C@@H]([C@@H](C)O)C(=O)N1)[C@@H](C)O [Compound 44, [19CD]-isoGlu-RC()NTATC()ATQRLAEFLHHSSNF-Gly(Me)-A-Ile(Me)-LSSTNVGSNTP-NH2] ({C20 diacid-γGlu}-RCNTATCATQRLAEFLHHSSNF[Sar]A[NMeI]LSSTNVGSNTP-NH2; disulfide 2-7) | –
2 | 0.15 | II (II indicates solubility ≤ 1 mg/ml) | II (II indicates solubility ≤ 1 mg/ml) | II (II indicates solubility ≤ 1 mg/ml) | II (II indicates solubility ≤ 1 mg/ml) | II (II indicates solubility ≤ 1 mg/ml) | II (II indicates solubility ≤ 1 mg/ml) | II (II indicates solubility ≤ 1 mg/ml) | CC[C@H](C)[C@@H](C(=O)N[C@@H](CC(C)C)C(=O)N[C@@H](CO)C(=O)N[C@@H](CO)C(=O)N[C@H](C(=O)N[C@@H](CC(N)=O)C(=O)N[C@H](C(=O)NCC(=O)N[C@@H](CO)C(=O)N[C@@H](CC(N)=O)C(=O)N[C@H](C(=O)N1CCC[C@H]1C(N)=O)[C@@H](C)O)C(C)C)[C@@H](C)O)N(C)C(=O)CN(C)C(=O)[C@H](Cc1ccccc1)NC(=O)[C@H](CC(N)=O)NC(=O)[C@H](CC(N)=O)NC(=O)[C@H](CO)NC(=O)[C@H](Cc1c[nH]cn1)NC(=O)[C@H](Cc1c[nH]cn1)NC(=O)[C@H](CC(C)C)NC(=O)[C@H](Cc1ccccc1)NC(=O)[C@H](CCC(=O)O)NC(=O)[C@H](C)NC(=O)[C@H](CC(C)C)NC(=O)[C@H](CCCNC(=N)N)NC(=O)[C@H](CCC(N)=O)NC(=O)[C@@H](NC(=O)[C@H](C)NC(=O)[C@@H]1CSSC[C@H](NC(=O)[C@H](CCCNC(=N)N)NC(=O)CC[C@H](NC(=O)CCCCCCCCCCCCCCCCCCC(=O)O)C(=O)O)C(=O)N[C@@H](CC(N)=O)C(=O)N[C@@H]([C@@H](C)O)C(=O)N[C@@H](C)C(=O)N[C@@H]([C@@H](C)O)C(=O)N1)[C@@H](C)O [Compound 46, [19CD]-isoGlu-RC()NTATC()ATQRLAEFLHHSNNF-Gly(Me)-Ile(Me)-LSSTNVGSNTP-NH2] ({C20 diacid-γGlu}-RCNTATCATQRLAEFLHHSNNF[Sar][NMeI]LSSTNVGSNTP-NH2; disulfide 2-7) | –
3 | 0.06 | SS (SS indicates solubility ≥ 1mg/ml) | SS (SS indicates solubility ≥ 1mg/ml) | SS (SS indicates solubility ≥ 1mg/ml) | SS (SS indicates solubility ≥ 1mg/ml) | SS (SS indicates solubility ≥ 1mg/ml) | SS (SS indicates solubility ≥ 1mg/ml) | SS (SS indicates solubility ≥ 1mg/ml) | CC[C@H](C)[C@@H](C(=O)N[C@@H](CC(C)C)C(=O)N[C@@H](CO)C(=O)N[C@@H](CO)C(=O)N[C@H](C(=O)N[C@@H](CC(N)=O)C(=O)N[C@H](C(=O)NCC(=O)N[C@@H](CO)C(=O)N[C@@H](CC(N)=O)C(=O)N[C@H](C(=O)N1CCC[C@H]1C(N)=O)[C@@H](C)O)C(C)C)[C@@H](C)O)N(C)C(=O)[C@H](C)NC(=O)CN(C)C(=O)[C@H](Cc1ccccc1)NC(=O)[C@H](CC(N)=O)NC(=O)[C@H](CC(N)=O)NC(=O)[C@H](Cc1c[nH]cn1)NC(=O)[C@H](Cc1c[nH]cn1)NC(=O)[C@H](CC(C)C)NC(=O)[C@H](Cc1ccccc1)NC(=O)[C@H](CCC(=O)O)NC(=O)[C@H](C)NC(=O)[C@H](CC(C)C)NC(=O)[C@H](CCCNC(=N)N)NC(=O)[C@H](CCC(N)=O)NC(=O)[C@@H](NC(=O)[C@H](C)NC(=O)[C@@H]1CSSC[C@H](NC(=O)[C@H](CCCNC(=N)N)NC(=O)CC[C@H](NC(=O)CCCCCCCCCCCCCCCCCCC(=O)O)C(=O)O)C(=O)N[C@@H](CC(N)=O)C(=O)N[C@@H]([C@@H](C)O)C(=O)N[C@@H](C)C(=O)N[C@@H]([C@@H](C)O)C(=O)N1)[C@@H](C)O [Compound 47, [19CD]-isoGlu-RC()NTATC()ATQRLAEFLHHNNF-Gly(Me)-A-Ile(Me)-LSSTNVGSNTP-NH2] ({C20 diacid-γGlu}-RCNTATCATQRLAEFLHHNNF[Sar]A[NMeI]LSSTNVGSNTP-NH2; disulfide 2-7) | –

Row | SMILES | EC50 [1, 3] [nM] | Solubility, Acetate buffer pH 4 [2] | Solubility, Acetate buffer pH 5 [2] | Solubility, Histidine buffer pH 6 [2] | Solubility, Histidine buffer pH 7 [2] | Solubility, Phosphate buffer pH 6 [2] | Solubility, Phosphate buffer pH 7 [2] | Solubility, Phosphate buffer pH 7.5 [2] | EC50 [1] [nM]
4 | CC[C@H](C)[C@@H](C(=O)N[C@@H](CC(C)C)C(=O)N[C@@H](CO)C(=O)N[C@@H](CO)C(=O)N[C@H](C(=O)N[C@@H](CC(N)=O)C(=O)N[C@H](C(=O)NCC(=O)N[C@@H](CO)C(=O)N[C@@H](CC(N)=O)C(=O)N[C@H](C(=O)N1CCC[C@H]1C(N)=O)[C@@H](C)O)C(C)C)[C@@H](C)O)N(C)C(=O)[C@H](C)NC(=O)CN(C)C(=O)[C@H](Cc1ccccc1)NC(=O)[C@H](CC(N)=O)NC(=O)[C@H](CC(N)=O)NC(=O)[C@H](CO)NC(=O)[C@H](Cc1c[nH]cn1)NC(=O)[C@H](Cc1c[nH]cn1)NC(=O)[C@H](CC(C)C)NC(=O)[C@H](Cc1ccccc1)NC(=O)[C@H](CCC(=O)O)NC(=O)[C@H](C)NC(=O)[C@H](CC(C)C)NC(=O)[C@H](CCCNC(=N)N)NC(=O)[C@H](CCC(N)=O)NC(=O)[C@@H](NC(=O)[C@H](C)NC(=O)[C@@H]1CSSC[C@H](NC(=O)[C@H](CCCNC(=N)N)NC(=O)CC[C@H](NC(=O)CCCCCCCCCCCCCCCCCCC(=O)O)C(=O)O)C(=O)N[C@@H](CC(N)=O)C(=O)N[C@@H]([C@@H](C)O)C(=O)N[C@@H](C)C(=O)N[C@@H]([C@@H](C)O)C(=O)N1)[C@@H](C)O [Compound 45, [19CD]-isoGlu-RC()NTATC()ATQRLAEFLHHSNNF-Gly(Me)-A-Ile(Me)-LSSTNVGSNTP-NH2] ({C20 diacid-γGlu}-RCNTATCATQRLAEFLHHSNNF[Sar]A[NMeI]LSSTNVGSNTP-NH2; disulfide 2-7) | – | II (II indicates solubility ≤ 1 mg/ml) | II (II indicates solubility ≤ 1 mg/ml) | II (II indicates solubility ≤ 1 mg/ml) | II (II indicates solubility ≤ 1 mg/ml) | II (II indicates solubility ≤ 1 mg/ml) | II (II indicates solubility ≤ 1 mg/ml) | II (II indicates solubility ≤ 1 mg/ml) | 0.14
